Test results: the NIST ThermoML archive (doi:10.1016/j.jct.2004.05.009)
Numbers after ± are expanded uncertainties.

Conditions: Liquid

vapor or sublimation pressure (159.01 K): 13.79 ± 0.3 kPa | vapor or sublimation pressure (182.33 K): 72.13 ± 1.2 kPa
SMILES: Cl [hydrogen chloride]
